Converted amounts (≈) assume the structure as drawn.
Assays:
[1] = Half life in human liver microsomes; assay type: ADME, Microsome
[2] = Inhibition of HIV NL4.3 integrase N124/T125 double mutant assessed as reduction in viral replication by luciferase reporter gene assay; parameters: species or system Human immunodeficiency virus
[3] = tested on: Human immunodeficiency virus; assay: Ratio of EC50 for HIV1 NL4.3 integrase N124/T125 double mutant in presence of human serum to EC50 for HIV1 NL4.3 integrase N124/T125 double mutant in absence of human serum
[4] = Inhibition of HIV NL4.3 integrase T124/T125 double mutant assessed as reduction in viral replication by luciferase reporter gene assay; parameters: species or system Human immunodeficiency virus
[5] = Clearance in rat relative to hepatic blood flow; assay type: ADME; conditions: in vivo
[6] = Inhibition of HIV NL4.3 integrase N124/A125 double mutant infected in PBMC assessed as reduction in viral replication by p24 ELISA; conditions: Human immunodeficiency virus 1, NL4.3
[7] = Inhibition of HIV NL4.3 integrase N124/T125 double mutant infected in PBMC assessed as reduction in viral replication by p24 ELISA; conditions: Human immunodeficiency virus 1, NL4.3
[8] = Inhibition of HIV NL4.3 integrase T124/T125 double mutant infected in PBMC assessed as reduction in viral replication by p24 ELISA; conditions: Human immunodeficiency virus 1, NL4.3
[9] = molecular target: Cytochrome P450 2C19 (Homo sapiens, UniProt P33261); assay: Inhibition of CYP2C19 (unknown origin); assay type: ADME
[10] = Clearance in iv dosed rat relative to hepatic blood flow; assay type: ADME, organism-based; conditions: in vivo
[11] = Clearance in iv dosed monkey relative to hepatic blood flow; assay type: ADME, organism-based, Macaca mulatta; conditions: rhesus monkey, in vivo
[12] = Total drug excretion in rat bile assessed as acyl glucuronide of parent compound at 3 hrs; assay type: ADME, tissue-based; conditions: in vivo
[13] = Solubility of the compound at pH 6.8; assay type: physicochemical; conditions: buffer
[14] = Inhibition of HIV NL4.3 integrase A124/A125 double mutant infected in PBMC assessed as reduction in viral replication by p24 ELISA; conditions: Human immunodeficiency virus 1, NL4.3
[15] = Half life in bile duct cannulated rat; assay type: ADME; conditions: in vivo
[16] = Inhibition of HIV NL4.3 integrase T124/A125 double mutant infected in PBMC assessed as reduction in viral replication by p24 ELISA; conditions: Human immunodeficiency virus 1, NL4.3
[17] = Inhibition of HIV NL4.3 integrase A124/T125 double mutant infected in PBMC assessed as reduction in viral replication by p24 ELISA; conditions: Human immunodeficiency virus 1, NL4.3
[18] = Half life in rat; assay type: ADME; conditions: in vivo
[19] = Clearance in human hepatocytes relative to hepatic blood flow; assay type: ADME, cell-based, Hepatocyte; conditions: read-out: CLH
[20] = Clearance in iv dosed dog relative to hepatic blood flow; assay type: ADME, organism-based, Canis lupus familiaris; conditions: in vivo
[21] = molecular target: Cytochrome P450 3A4 (Homo sapiens, UniProt P08684); assay: Inhibition of CYP3A4 (unknown origin); assay type: ADME
[22] = molecular target: T1, Cytochrome P450 1A2 (Homo sapiens, UniProt P05177); assay: Inhibition of CYP1A2 (unknown origin); assay type: ADME
T1 sequence (P05177 whole entry): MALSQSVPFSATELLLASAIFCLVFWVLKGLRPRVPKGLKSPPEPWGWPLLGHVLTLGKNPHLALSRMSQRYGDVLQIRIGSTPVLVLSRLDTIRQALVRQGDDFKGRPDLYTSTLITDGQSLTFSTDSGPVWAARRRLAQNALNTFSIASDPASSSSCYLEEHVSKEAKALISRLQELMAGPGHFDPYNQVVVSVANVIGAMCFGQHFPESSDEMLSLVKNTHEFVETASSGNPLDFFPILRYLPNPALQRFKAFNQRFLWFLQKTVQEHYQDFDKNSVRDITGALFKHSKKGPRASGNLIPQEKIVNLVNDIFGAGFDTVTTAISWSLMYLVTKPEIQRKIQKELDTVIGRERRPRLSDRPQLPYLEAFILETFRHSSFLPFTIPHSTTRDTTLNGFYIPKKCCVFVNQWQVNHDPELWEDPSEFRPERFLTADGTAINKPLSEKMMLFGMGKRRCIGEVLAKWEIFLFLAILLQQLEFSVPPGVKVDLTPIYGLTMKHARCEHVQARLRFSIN

[23] = Clearance in rat hepatocytes relative to hepatic blood flow; assay type: ADME, cell-based, Hepatocyte; conditions: read-out: CLH
[24] = molecular target: Cytochrome P450 2C9 (Homo sapiens, UniProt P11712); assay: Inhibition of CYP2C9 (unknown origin); assay type: ADME
[25] = Clearance in dog hepatocytes relative to hepatic blood flow; assay type: ADME, cell-based, Canis lupus familiaris, Hepatocyte; conditions: read-out: CLH
[26] = Volume of distribution at steady state in rat; assay type: ADME; conditions: in vivo, read-out: Vdss
[27] = molecular target: Cytochrome P450 2D6 (Homo sapiens, UniProt P10635); assay: Inhibition of CYP2D6 (unknown origin); assay type: ADME
[28] = Apparent permeability in human Caco2 cells; assay type: ADME, cell-based; conditions: Caco-2
[29] = Clearance in monkey hepatocytes relative to hepatic blood flow; assay type: ADME, cell-based, Macaca mulatta, Hepatocyte; conditions: rhesus monkey, read-out: CLH

Chain of Cytochrome P450 3A4 (P08684 whole entry): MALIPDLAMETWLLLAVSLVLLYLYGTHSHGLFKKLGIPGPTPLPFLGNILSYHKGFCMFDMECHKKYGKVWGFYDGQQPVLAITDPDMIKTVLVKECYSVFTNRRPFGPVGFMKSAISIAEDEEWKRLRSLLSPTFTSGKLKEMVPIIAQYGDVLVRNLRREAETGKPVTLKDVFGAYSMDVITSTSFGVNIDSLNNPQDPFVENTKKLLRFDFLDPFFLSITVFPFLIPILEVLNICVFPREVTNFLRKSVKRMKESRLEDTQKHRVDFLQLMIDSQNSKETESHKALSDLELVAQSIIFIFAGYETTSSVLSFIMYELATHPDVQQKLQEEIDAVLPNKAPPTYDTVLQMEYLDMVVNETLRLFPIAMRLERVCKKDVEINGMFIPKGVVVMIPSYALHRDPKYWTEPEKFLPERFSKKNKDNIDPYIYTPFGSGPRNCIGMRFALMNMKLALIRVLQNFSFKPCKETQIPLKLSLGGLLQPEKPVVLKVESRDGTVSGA
Chain of Cytochrome P450 2C19 (P33261 whole entry): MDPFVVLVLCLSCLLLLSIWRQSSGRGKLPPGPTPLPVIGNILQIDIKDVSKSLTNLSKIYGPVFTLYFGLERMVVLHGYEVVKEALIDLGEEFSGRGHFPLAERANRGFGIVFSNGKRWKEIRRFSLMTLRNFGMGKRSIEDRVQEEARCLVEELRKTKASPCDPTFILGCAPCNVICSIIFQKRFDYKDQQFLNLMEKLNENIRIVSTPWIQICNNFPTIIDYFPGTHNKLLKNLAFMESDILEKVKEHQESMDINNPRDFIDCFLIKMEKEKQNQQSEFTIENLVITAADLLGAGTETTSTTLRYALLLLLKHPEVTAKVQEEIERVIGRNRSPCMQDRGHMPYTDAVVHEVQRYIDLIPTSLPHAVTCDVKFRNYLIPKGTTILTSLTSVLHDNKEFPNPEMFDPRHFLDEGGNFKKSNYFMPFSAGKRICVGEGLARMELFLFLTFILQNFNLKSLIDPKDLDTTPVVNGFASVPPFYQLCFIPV
Chain of Cytochrome P450 2C9 (P11712 whole entry): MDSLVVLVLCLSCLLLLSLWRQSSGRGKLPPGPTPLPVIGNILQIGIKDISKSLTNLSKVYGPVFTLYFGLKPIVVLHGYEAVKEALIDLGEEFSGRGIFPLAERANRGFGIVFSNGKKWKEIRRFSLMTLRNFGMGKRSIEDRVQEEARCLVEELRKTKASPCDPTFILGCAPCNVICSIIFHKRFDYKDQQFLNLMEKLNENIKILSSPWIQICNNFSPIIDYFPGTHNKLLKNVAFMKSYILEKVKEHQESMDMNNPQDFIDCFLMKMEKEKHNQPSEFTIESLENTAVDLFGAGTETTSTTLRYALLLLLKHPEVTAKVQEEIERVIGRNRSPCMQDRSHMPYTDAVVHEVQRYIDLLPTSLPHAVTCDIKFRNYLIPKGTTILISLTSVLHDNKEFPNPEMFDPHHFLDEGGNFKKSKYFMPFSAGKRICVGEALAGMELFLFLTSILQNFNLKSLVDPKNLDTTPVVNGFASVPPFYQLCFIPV
Chain of Cytochrome P450 2D6 (P10635 whole entry): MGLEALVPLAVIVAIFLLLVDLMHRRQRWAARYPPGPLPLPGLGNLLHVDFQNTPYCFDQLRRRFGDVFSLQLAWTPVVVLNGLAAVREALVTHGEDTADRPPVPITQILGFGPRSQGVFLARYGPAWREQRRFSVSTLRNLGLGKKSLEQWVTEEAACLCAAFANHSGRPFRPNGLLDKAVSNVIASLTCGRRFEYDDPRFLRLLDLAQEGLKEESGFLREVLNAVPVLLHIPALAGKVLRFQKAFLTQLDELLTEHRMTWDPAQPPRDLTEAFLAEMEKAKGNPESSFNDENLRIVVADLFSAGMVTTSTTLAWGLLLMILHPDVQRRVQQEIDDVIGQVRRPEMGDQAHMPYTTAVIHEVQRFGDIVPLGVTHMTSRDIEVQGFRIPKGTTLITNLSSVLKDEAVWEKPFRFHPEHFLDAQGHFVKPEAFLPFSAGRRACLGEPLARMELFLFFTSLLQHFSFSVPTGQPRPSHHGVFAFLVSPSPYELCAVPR

## Cc1nc(C(=O)N[C@H]2CC[C@H](C)CC2)c(C)c(-c2ccc3c(c2)CCCO3)c1[C@H](OC(C)(C)C)C(=O)O
[1]
  half-life: 0.817 h
[2]
  EC50: 220 nM
[3]
  Ratio EC50: 4.1
[4]
  EC50: 4.2 nM

## Cc1nc2ccccc2c(-c2ccc3c4c(ccnc24)CCO3)c1[C@H](OC(C)(C)C)C(=O)O [BI-224436]
[5]
  CL: 0.7%
[2]
  EC50: 30 nM
[4]
  EC50: 19 nM

## Cc1nc(C(=O)N[C@H]2CC[C@H](C)CC2)c(C)c(-c2ccc3c(c2C)N(C)CCO3)c1[C@H](OC(C)(C)C)C(=O)O
[6]
  EC50: 42 nM
[7]
  EC50: 27 nM
[8]
  EC50: 0.5 nM
[9]
  IC50: > 30000 nM
[10]
  CL: 23%
[11]
  CL: 30%
[12]
  Drug excretion: 20%
[13]
  solubility: 930 µg/mL (≈ 1730 µM)
[14]
  EC50: 0.9 nM
[15]
  half-life: 1.3 h
[16]
  EC50: 0.4 nM
[1]
  half-life: > 5 h
[17]
  EC50: 0.6 nM
[18]
  half-life: 1.3 h
[19]
  hepatic extraction ratio: 0.17
[20]
  CL: 10%
[21]
  IC50: > 30000 nM
[22]
  IC50: > 30000 nM
[23]
  hepatic extraction ratio: 0.07
[24]
  IC50: > 30000 nM
[2]
  EC50: 170 nM
[3]
  Ratio EC50: 2.9
[25]
  hepatic extraction ratio: 0.31
[26]
  Vd: 1.4 L/kg
[4]
  EC50: 2.5 nM
[27]
  IC50: > 30000 nM
[28]
  Papp: 39.8 ×10⁻⁶ cm/s
[29]
  hepatic extraction ratio: 0.31

## Cc1nc(NC(=O)c2ccccc2OC(F)(F)F)c(C)c(-c2ccc3c(c2)N(C)CCO3)c1[C@H](OC(C)(C)C)C(=O)O
[1]
  half-life: > 5 h
[2]
  EC50: 220 nM
[3]
  Ratio EC50: 3.4
[4]
  EC50: 7.4 nM

## Cc1nc(C(=O)Nc2ccccc2)c(C)c(-c2ccc(Cl)cc2)c1[C@H](OC(C)(C)C)C(=O)O
[2]
  EC50: 670 nM
[4]
  EC50: 12 nM

## Cc1nc(C(=O)N[C@H]2CC[C@H](C)CC2)c(C)c(-c2ccc3c(c2)NCCO3)c1[C@H](OC(C)(C)C)C(=O)O
[1]
  half-life: > 5 h
[2]
  EC50: 280 nM
[3]
  Ratio EC50: 2.1
[4]
  EC50: 27 nM

## Cc1nc(C(=O)N[C@H]2CC[C@H](C)CC2)c(C)c(-c2ccc(Cl)cc2)c1[C@H](OC(C)(C)C)C(=O)O
[1]
  half-life: 3.07 h
[2]
  EC50: 570 nM
[3]
  Ratio EC50: 3.7
[4]
  EC50: 7.3 nM

## Cc1nc(-c2nc3cccc(C)c3n2C)c(C)c(-c2ccc(Cl)cc2)c1[C@H](OC(C)(C)C)C(=O)O
[1]
  half-life: 2 h
[3]
  Ratio EC50: 3.2
[4]
  EC50: 3 nM

## Cc1ccc2[nH]c(-c3nc(C)c([C@H](OC(C)(C)C)C(=O)O)c(-c4ccc(Cl)cc4)c3C)nc2c1
[1]
  half-life: 2.77 h
[3]
  Ratio EC50: 13
[4]
  EC50: 1.1 nM

## Cc1nc(C(=O)N[C@H]2CC[C@H](O)CC2)c(C)c(-c2ccc(Cl)cc2)c1[C@H](OC(C)(C)C)C(=O)O
[1]
  half-life: > 5 h
[4]
  EC50: 930 nM

## Cc1nc(NC(=O)c2ccccc2)c(C)c(-c2ccc(Cl)cc2)c1[C@H](OC(C)(C)C)C(=O)O
[2]
  EC50: 1100 nM
[4]
  EC50: 15 nM

## Cc1cccc(NC(=O)c2nc(C)c([C@H](OC(C)(C)C)C(=O)O)c(-c3ccc(Cl)cc3)c2C)c1
[1]
  half-life: > 5 h
[4]
  EC50: 3.7 nM

## Cc1noc(C)c1-c1ccc(-c2nc(C)c([C@H](OC(C)(C)C)C(=O)O)c(-c3ccc(Cl)cc3)c2C)cc1
[5]
  CL: 0.6%
[2]
  EC50: 810 nM
[4]
  EC50: 7.7 nM

## Cc1nc(NC(=O)c2ccccc2OC(F)(F)F)c(C)c(-c2ccc3c(c2C)N(C)CCO3)c1[C@H](OC(C)(C)C)C(=O)O
[1]
  half-life: > 5 h
[3]
  Ratio EC50: 2.6
[4]
  EC50: 4.7 nM

## Cc1nc(-c2cn(-c3ccccc3)nn2)c(C)c(-c2ccc3c(c2)CCCO3)c1[C@H](OC(C)(C)C)C(=O)O
[2]
  EC50: 310 nM
[3]
  Ratio EC50: 17
[4]
  EC50: 4.7 nM

## Cc1nc(C(=O)NCc2ccccc2)c(C)c(-c2ccc3c(c2)CCCO3)c1[C@H](OC(C)(C)C)C(=O)O
[2]
  EC50: 200 nM
[3]
  Ratio EC50: 23
[4]
  EC50: 14 nM

## Cc1ccc2nc(-c3nc(C)c([C@H](OC(C)(C)C)C(=O)O)c(-c4ccc5c(c4C)N(C)CCO5)c3C)n(C)c2c1
[1]
  half-life: 1.58 h
[2]
  EC50: 91 nM
[3]
  Ratio EC50: 3.9
[4]
  EC50: 3 nM

## Cc1nc(C(=O)NC2CCN(C)CC2)c(C)c(-c2ccc(Cl)cc2)c1[C@H](OC(C)(C)C)C(=O)O
[4]
  EC50: 2200 nM

## Cc1nc(-c2nc3ccc(F)cc3n2C)c(C)c(-c2ccc3c(c2C)N(C)CCO3)c1[C@H](OC(C)(C)C)C(=O)O
[1]
  half-life: 1.58 h
[2]
  EC50: 120 nM
[3]
  Ratio EC50: 1.4
[4]
  EC50: 3 nM

## Cc1nc(-c2nc3ccccc3n2C)c(C)c(-c2ccc3c(c2C)N(C)CCO3)c1[C@H](OC(C)(C)C)C(=O)O
[10]
  CL: 24%
[12]
  Drug excretion: 70%
[13]
  solubility: > 1000 µg/mL
[1]
  half-life: 3.25 h
[19]
  hepatic extraction ratio: 0.24
[23]
  hepatic extraction ratio: 0.19
[2]
  EC50: 59 nM
[3]
  Ratio EC50: 4.9
[26]
  Vd: 1.6 L/kg
[4]
  EC50: 3.3 nM
[28]
  Papp: 10.6 ×10⁻⁶ cm/s

## Cc1nc(C(=O)N[C@H]2CC[C@H](C)CC2)c(C)c(-c2ccc3c4c(cccc24)CCO3)c1[C@H](OC(C)(C)C)C(=O)O
[1]
  half-life: > 5 h
[2]
  EC50: > 2500 nM
[3]
  Ratio EC50: 2.9
[4]
  EC50: 16 nM

## Cc1nc(C(=O)N[C@H]2CC[C@H](C)CC2)c(C)c(-c2ccc3c(c2C)NCCO3)c1[C@H](OC(C)(C)C)C(=O)O
[1]
  half-life: 3.12 h
[2]
  EC50: 130 nM
[3]
  Ratio EC50: 3
[4]
  EC50: 7.5 nM

## Cc1nc(C(=O)NC(C)(C)C2CC2)c(C)c(-c2ccc(Cl)cc2)c1[C@H](OC(C)(C)C)C(=O)O
[1]
  half-life: 3.63 h
[2]
  EC50: 560 nM
[3]
  Ratio EC50: 1.5
[4]
  EC50: 4.4 nM

## Cc1nc(C(=O)N[C@H]2CC[C@H](C)CC2)c(C)c(-c2ccc3c(c2)N(C)CCO3)c1[C@H](OC(C)(C)C)C(=O)O
[1]
  half-life: > 5 h
[2]
  EC50: 600 nM
[3]
  Ratio EC50: 4.1
[4]
  EC50: 6.8 nM

## Cc1noc(C)c1-c1ccc(-c2nc(C)c([C@H](OC(C)(C)C)C(=O)O)c(-c3ccc4c(c3)CCCO4)c2C)cc1
[2]
  EC50: 390 nM
[3]
  Ratio EC50: 7.8
[4]
  EC50: 5.5 nM

Source: ChEMBL document CHEMBL4428082, “Aligning Potency and Pharmacokinetic Properties for Pyridine-Based NCINIs” (ACS Med Chem Lett, 2016)
